{
  "source": "patent US7943296B2",
  "about": "“Methods of screening using a natriuretic peptide receptor” (Oregon Health & Science University, priority 2005, dated 2011)",
  "key": {"[1]": {"tested_on": "NPRA", "assay": "[35S]ATPγS NPRA phosphorylation in HEK293 / HEK-NPRA cells", "type": "cell-based", "details": "HEK293 that overexpress NPRA", "experimental": "To ensure that the 137-kD phosphorylation band observed in the CFs after ANP treatment was, in fact, NPRA, HEK293 or HEK-NPRA were treated with ANP with or without KT5823 as described above. The lysates were divided into two aliquots. One aliquot was incubated with [^35S] ATPγS and then separated by SDS-PAGE, blotted to Immobilon membranes, and visualized by autoradiography. The other aliquot was separated similarly and then probed with anti-NPRA antisera, stripped and re-probed with anti-α-tubulin to assure equal protein loading. Robust phosphorylation of a 137-kD protein occurred in the NPRA-expressing cells, but not in control cells (FIG. 6B). Since both KT5823 and sNRF^(806-1061) inhibit cytosolic-to-plasma membrane translocation of PKG, PKG-NPRA association appears to be required for PKG-induced NPRA phosphorylation."}, "[2]": {"target": "T1, PKG (Homo sapiens, UniProt Q13976)", "T1 construct": "endogenous in cells; host or cells: HEK293 stably over-expressing FLAG-NPRA (HEK-NPRA)", "T1 sequence (Q13976 1-671)": "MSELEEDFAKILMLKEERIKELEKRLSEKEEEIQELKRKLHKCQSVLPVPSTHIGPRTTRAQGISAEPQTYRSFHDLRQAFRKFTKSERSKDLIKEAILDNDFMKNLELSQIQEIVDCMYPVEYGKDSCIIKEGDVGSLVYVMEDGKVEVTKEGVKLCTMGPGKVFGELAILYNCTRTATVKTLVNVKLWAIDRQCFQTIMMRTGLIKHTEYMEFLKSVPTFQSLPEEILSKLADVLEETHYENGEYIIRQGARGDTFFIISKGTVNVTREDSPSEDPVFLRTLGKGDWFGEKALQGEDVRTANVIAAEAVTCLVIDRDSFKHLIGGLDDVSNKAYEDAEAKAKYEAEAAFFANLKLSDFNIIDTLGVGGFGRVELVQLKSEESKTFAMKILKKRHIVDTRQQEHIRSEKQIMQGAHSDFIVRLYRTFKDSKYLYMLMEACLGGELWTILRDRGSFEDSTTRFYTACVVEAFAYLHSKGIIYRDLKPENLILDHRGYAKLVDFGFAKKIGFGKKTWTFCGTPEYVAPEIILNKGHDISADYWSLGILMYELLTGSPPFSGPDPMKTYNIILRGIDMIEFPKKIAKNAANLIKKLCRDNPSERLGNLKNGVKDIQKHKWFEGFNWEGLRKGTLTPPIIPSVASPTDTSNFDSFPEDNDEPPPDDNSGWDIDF", "details": "earlier observation, Airhart et al. 2003; cited from earlier work"}, "[3]": {"tested_on": "NPRA", "assay": "[35S]ATPγS incorporation into NPRA (receptor phosphorylation) in CFs", "type": "cell-based, rat", "details": "ANP 5 minutes, KT5823 1 μM or expressed fragment", "experimental": "To identify receptor phosphorylation by PKG, ^[35S]ATPγS was employed as a substrate. [^35S] incorporation into NPRA was analyzed according to the method previously described (Joubert et al., Biochem. 40:11096-105, 2001). Briefly, the treated CFs were scraped into 100 μl ice-cold incubation buffer (25 mM HEPES, pH 7.4, 50 mM NaCl, 5 mM MgCl2, 0.2 μM okadaic acid, 1 mM Na3VO4, 10 mM NaH2PO4, 10 mM NaF, and protease inhibitors (complete mini-tablet, Roche) and lysed by repeated passage through a 22-gauge needle. Lysates were added to incubation buffer containing 1 μCi [^35S]ATPγS (specific activity >1000 Ci/mmol), final volume of 200 μl, incubated at 37° C. for 30 minutes. Proteins were analyzed by SDS-PAGE (7.5%) and subsequent autoradiography."}},
  "data": [
    {"smiles": "COC(=O)[C@@]1(OC)C[C@H]2O[C@]1(C)n1c3ccccc3c3c4c(c5c6ccccc6n2c5c31)C(=O)N(C)C4", "note": "[KT5823]", "values": [
      {"measurement": "NP-dependent phosphorylation of NPRA", "setting": "[1]", "value": "inhibited"},
      {"measurement": "PKG translocation", "setting": "[2]", "value": "inhibits PKG translocation"},
      {"measurement": "ANP-induced NPRA phosphorylation", "setting": "[3]", "value": "reduced ANP-induced NPRA phosphorylation to control levels"}
    ]}
  ]
}
